[BNANC] = BNA^NC bridged nucleic acid sugar; {ThiolC6} = Thiol C6 linker; d = 2'-deoxy (DNA)
How the values were obtained:
ApoB RNA [1] = experiment: ApoB RNA expression analysis in mouse primary hepatocytes; type: cell-based; conditions: alone
Description: Cryopreserved primary mouse hepatocytes ([…] Cell Culture Technology GmbH, Germany) were thawed in hepatocyte thawing media (HTM, […] Cell Culture Technology GmbH, Germany) and washed 1× with hepatocyte wash media (HWM, […] Cell Culture Technology GmbH, Germany). Cells were re-suspended in hepatocyte plating media (HPM Cryo, […] Cell Culture Technology GmbH, Germany) at a density of approx. 0.275×10^6 cells/ml.
RNA from cells was isolated using TRI Reagent® Solution (Thermo Scientific) according to the manufacturer's instruction. Conversion into cDNA was performed using iScript™ cDNA Synthesis Kit (BioRad) using standard protocols. ApoB expression levels and levels of specific hepatocyte housekeeping genes were determined using quantitative real-time PCR assays (qRT-PCR) using iTaq™ Universal SYBR® Green Supermix (BioRad) and the Light Cycler 480 (Roche Diagnostics, Rotkreuz, Switzerland) with specific DNA primers, listed in Table A4. Analysis was done by the ΔCt method to determine ApoB expression relative to 2 hepatocyte-specific housekeeping control mRNAs. Each analysis reaction was performed in triplicate.

ApoB RNA [2] = experiment: ApoB RNA expression analysis in liver tissue of C57BL/6J mice; type: in vivo
Procedure: (§1) • Dose administration and in-life phase. Per group, 8 C57BL/6J male mice for treatment groups and 14 in vehicle control group, approximately 6-7 weeks at arrival and 8-9 weeks at dosing, were dosed. The compounds, formulated in PBS or PBS alone (vehicle) according to Table A5, were dosed at 5 ml/kg in the tail vain (intravenously, iv), with dose volumes corresponding to the individual bodyweights. Where applicable, trivalent GalNAc-SO1861-EMCH was co-administered at 5 ml/kg in the tail vain (iv) right after the trivalent GalNAc-ApoB conjugate. Animals were weighed weekly and clinical observations were performed 2-3 times daily within the first 48 hrs, and at least once daily thereafter until study end. • Sampling of serum, liver, and kidney tissue. […] One half of the liver and one kidney was frozen and used for tissue RNA analysis.
The mRNA was isolated from frozen liver tissue using TRzol® Reagent (Thermo Scientific) according to the manufacturer's instruction. Conversion into cDNA was performed using Script™ cDNA Synthesis Kit (BioRad). ApoB expression levels and levels of specific liver housekeeping genes were determined using quantitative real-time PCR assays (qRT-PCR) using iTaq™ Universal SYBR® Green Supermix (BioRad) and the Light Cycler 480 (Roche Diagnostics, Rotkreuz, Switzerland) with specific DNA primers, listed in Table A5. Analysis was done by the ΔCt method to determine ApoB expression relative to 2 liver-specific housekeeping control mRNAs. Each analysis reaction was performed in triplicate.

LDL-cholesterol = experiment: Serum LDL-cholesterol analysis in C57BL/6J mice; type: in vivo
Procedure: as §1
LDL-cholesterol was measured in mouse serum, using an LDL-cholesterol specific two-step AU480 assay kit, respectively, from Beckman Coulter, with a photometric measurement according to the manufacturer's instructions.

[3] = In vivo tolerability (clinical observations, body weight) in C57BL/6J mice; conditions: doses and dose regimen of Table A5, iv, up to 336 hrs
Procedure: During the study period, ALT levels for vehicle mice ranged from an average 47 to 61 U/L per group (n=6 animals for vehicle).
as §1

ApoB #02: murine and human sequence-compatible ApoB BNA(NC) antisense oligo 5′-GCattggtatTCA-3′ [SEQ ID NO: 12] (antisense GCATTGGTATTCA; sugars from the 5' end [BNANC]2 d8 [BNANC]3, all phosphorothioate, 5' {ThiolC6}, methylation of C not given here)
IC50 (ApoB RNA [1]; 72 hrs, read-out: IC50 ApoB RNA down-modulation): 20 nM
fold less potent in ApoB RNA down-modulation than (GalNAc)3-ApoB #02 combined with SO1861-EMCH or (GalNAc)3-SO1861 (ApoB RNA [1]): 100-667 fold
reduction of liver ApoB RNA levels compared to vehicle (ApoB RNA [2]; 0.1 mg/kg iv alone, 24 hrs): not noticeably reduced
reduction of liver ApoB RNA levels compared to vehicle (ApoB RNA [2]; 1 mg/kg iv alone, 24 hrs): ~15%
reduction of liver ApoB RNA levels compared to vehicle (ApoB RNA [2]; 2 mg/kg iv alone, 24 hrs): ~21%
reduction of liver ApoB RNA levels compared to vehicle (ApoB RNA [2]; 2 mg/kg iv alone, 72 hrs): 39%
reduction of liver ApoB RNA levels compared to vehicle (ApoB RNA [2]; 2 mg/kg iv alone, 336 hrs): 30%
reduction of serum LDL-C compared to vehicle (LDL-cholesterol; 0.1 mg/kg iv alone, 24 hrs): not noticeably reduced
reduction of serum LDL-C compared to vehicle (LDL-cholesterol; 1 mg/kg iv alone, 24 hrs): not noticeably reduced
reduction of serum LDL-C compared to vehicle (LDL-cholesterol; 2 mg/kg iv alone, 24 hrs): not noticeably reduced
reduction of serum LDL-C compared to vehicle (LDL-cholesterol; 2 mg/kg iv alone, 72 hrs): 50%
reduction of serum LDL-C (LDL-cholesterol; 2 mg/kg iv alone, 336 hrs): 40%
tolerability (clinical observations, adverse findings) [3]: well tolerated
